Where two headings read alike, the source gives them in different places.
What was measured:
Assay type in all cases: biochemical
Sirt5 = target: T1, Sirt5 (Homo sapiens, UniProt Q9NXA8); test: Fluor-de-Lys peptide deacetylation assay, Sirt5
T1 construct: Sirt5 residues 34-302; His-tag with linker comprising a TEV protease cleavage site (N); made in house
T1 sequence (Q9NXA8 34-302): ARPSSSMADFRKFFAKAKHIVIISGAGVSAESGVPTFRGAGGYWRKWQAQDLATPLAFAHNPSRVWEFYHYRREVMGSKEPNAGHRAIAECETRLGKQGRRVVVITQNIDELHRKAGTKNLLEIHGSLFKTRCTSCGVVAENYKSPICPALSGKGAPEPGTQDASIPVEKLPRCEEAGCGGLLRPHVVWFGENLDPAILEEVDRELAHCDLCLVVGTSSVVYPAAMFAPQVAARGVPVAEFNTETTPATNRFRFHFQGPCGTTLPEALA
Method: (§1) Sirt3 was expressed in E. coli and purified via Ni-NTA and size exclusion chromatography as described elsewhere, and Sirt5 according to the protocol of Schuetz et al.. […] The protein was bound to the HiTrapQ column in buffer A and eluted in a gradient to buffer A supplemented with 400 mM KCl. Fractions were analyzed by SDS-PAGE, and the Sirt1 fractions were pooled and transferred into buffer A using a NAP column (GE Healthcare).
(§2) The commercial Fluor-de-Lys (FdL) assay kits 1 and 2 (Biomol, Plymouth Meeting, USA) were used to test the deacetylase activity of the four Sirtuins. In both kits the substrate derived from p53 is composed of three amino acids, the acetyl lysine and a C-terminally attached fluorophor. For Sirt2 and 3, FdL-2 peptide (QPK(acetyl-K)) was used, and FdL-1 peptide (RHK(acetyl-K)) for Sirt5 and Sirt6. All tests were done with 0.1 mM of the respective FdL peptide and 0.5 mM NAD^+ as substrates.
(§3) NCI compound stocks were prepared by dissolving them in DMSO at a concentration of 5 mM. The initial screens with all 40 compounds contained 5 μl Sirtuin solution (Sirt2/3 0.1 mg/ml stock concentration; Sirt5/6 1 mg/ml), 1 μl of compound stock (resulting in a 100 μM end concentration), 15 μl FdL substrate, and assay buffer (supplied in the assay kit) to a total volume of 50 μl. As control reactions, peptide with either the compound (without Sirtuin) or with Sirtuin and DMSO instead of compound were measured. After starting the reactions by adding the FdL substrate, assays were incubated for 30 min at 37 °C. Subsequently, 50 μl of a 10 mg/ml trypsin stock (“Developer solution”) were added and the reactions were incubated for 45 min at room temperature. Fluorescence values were measured in a fluorometric plate reader with excitation at 360 nm and read out at 485 nm. Values were then corrected with the control reaction (same compound, but without Sirtuin).
(§4) All measurements shown are averages of duplicates (screen) or triplicates (dose-response curves), and representatives of at least two independent replications. Error bars indicate standard deviations.

Sirt3 = target: T2, Sirt3 (Homo sapiens, UniProt Q9NTG7); test: Fluor-de-Lys peptide deacetylation assay, Sirt3
T2 construct: Sirt3 residues 114-399; His-tag with linker comprising a TEV protease cleavage site (N); made in house; host or cells: E. coli
T2 sequence (Q9NTG7 114-399): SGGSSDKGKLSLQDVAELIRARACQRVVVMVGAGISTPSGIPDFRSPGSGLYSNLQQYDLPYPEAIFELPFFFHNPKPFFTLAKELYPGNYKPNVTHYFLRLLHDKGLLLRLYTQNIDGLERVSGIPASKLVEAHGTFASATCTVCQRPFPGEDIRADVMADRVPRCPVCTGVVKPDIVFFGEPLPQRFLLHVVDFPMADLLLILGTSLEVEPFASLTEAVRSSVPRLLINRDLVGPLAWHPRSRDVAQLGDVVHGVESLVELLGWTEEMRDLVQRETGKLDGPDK
Method: as §1, §2, §3, §4

Sirt2 = target: T3, Sirt2 (Homo sapiens, UniProt Q8IXJ6); test: Fluor-de-Lys peptide deacetylation assay, Sirt2
T3 sequence (Q8IXJ6 34-356): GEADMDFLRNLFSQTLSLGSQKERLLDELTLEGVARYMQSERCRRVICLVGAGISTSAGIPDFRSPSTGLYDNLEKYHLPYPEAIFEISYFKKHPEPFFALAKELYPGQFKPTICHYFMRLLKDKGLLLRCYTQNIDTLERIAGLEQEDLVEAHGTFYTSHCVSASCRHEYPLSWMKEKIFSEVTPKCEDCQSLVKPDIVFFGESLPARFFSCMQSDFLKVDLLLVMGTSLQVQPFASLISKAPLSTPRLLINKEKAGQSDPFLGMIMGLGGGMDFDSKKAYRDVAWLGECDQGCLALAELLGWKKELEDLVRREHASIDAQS
Method: The Sirt2 construct was expressed in E. coli Rosetta2 cells (Merck) in LB/Ampicillin/Chloramphenicol medium. Cells were grown at 37 °C, and expression induced at an OD600 of 0.6-0.8 for 4 h with 0.5 mM IPTG. Harvested cells were resuspended in buffer A (50 mM Tris/HCl pH 7.8, 200 mM NaCl, 2 mM DTT), disrupted with a Sonifier, and cell debris removed by 40 min centrifugation at 4 °C, 18000 rpm in a HFA22.50 rotor. The supernatant was supplemented with 10 mM imidazole and incubated with Ni-NTA resin for 1 h at 4 °C. […] The protein was concentrated in an amicon unit (Millipore, Billerica, USA) and digested over night at 4 °C with TEV-protease. The protease was removed from cleaved Sirt2 by incubation with Ni-NTA resin for 1 h at 4 °C. The protein was concentrated, 1:5 diluted with 50 mM Tris/HCl, pH 7.8, and applied to a HiTrap Q anion exchange column (GE Healthcare) equilibrated with 50 mM Tris/HCl, pH 7.8, 50 mM NaCl, 2 mM DTT and eluted with a gradient (20 column volumes) to 50 mM Tris/HCl, pH 7.8, 1 M NaCl, 2 mM DTT. Sirt2 was then applied to a Superdex200 gel filtration column (GE Healthcare) equilibrated in 20 mM Tris/HCl, pH 7.8, 150 mM NaCl, 2 mM DTT. The eluted protein was analyzed by SDS-PAGE, re-concentrated, and shock-frozen in liquid nitrogen for storage at -80 °C.
as §2, §3, §4

Sirt6 = target: T4, Sirt6 (Homo sapiens, UniProt Q8N6T7); test: Fluor-de-Lys peptide deacetylation assay, Sirt6
T4 construct: Sirt6 residues 13-308; His-tag with linker comprising a TEV protease cleavage site (N, cleaved yes); made in house; host or cells: E. coli Rosetta2
T4 sequence (Q8N6T7 13-308): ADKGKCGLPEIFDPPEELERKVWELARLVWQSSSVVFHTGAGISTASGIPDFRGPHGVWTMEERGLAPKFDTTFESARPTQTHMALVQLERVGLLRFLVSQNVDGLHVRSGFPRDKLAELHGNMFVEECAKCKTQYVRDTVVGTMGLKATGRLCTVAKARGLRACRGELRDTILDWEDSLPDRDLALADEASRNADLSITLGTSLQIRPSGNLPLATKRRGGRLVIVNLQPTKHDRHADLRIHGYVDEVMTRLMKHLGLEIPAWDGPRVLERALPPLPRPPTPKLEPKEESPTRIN
Method: as §2, §3, §4

[1] = 100 μM compound, 0.1 mM FdL-1 peptide, 0.5 mM NAD+
[2] = 100 μM compound, 0.1 mM FdL-2 peptide, 0.5 mM NAD+

| Compound | Effect on the activity of Sirt5 (Sirt5) | Effect on the activity of Sirt3 (Sirt3) | Effect on the activity of Sirt2 (Sirt2) | Effect on the activity of Sirt6 (Sirt6) | Effect on the activity of Sirt5 (Sirt5; [1]) | Effect on the activity of Sirt3 (Sirt3; [2]) | Effect on the activity of Sirt2 (Sirt2; [2]) | Effect on the activity of Sirt6 (Sirt6; [1]) |
| --- | --- | --- | --- | --- | --- | --- | --- | --- |
| C[C@]12CC[C@H]3[C@@H](CCC4=CC(=O)CC[C@@H]43)[C@@H]1CCC2OC1(O)C(=O)c2ccccc2C1=O (stereo partly drawn) [CSC16, 2-hydroxy-2-((3-oxoestr-4-en-17-yl)oxy)-1H-indene-1,3(2H)-dione] | --- (key: inhibition: significant inhibitory effects (>25% loss of activity); ---: no such effect) | --- (key: inhibition: significant inhibitory effects (>25% loss of activity); ---: no such effect) | --- (key: inhibition: significant inhibitory effects (>25% loss of activity); ---: no such effect) | --- (key: inhibition: significant inhibitory effects (>25% loss of activity); ---: no such effect) | – | – | – | – |
| O=C1c2ccccc2C(C2c3ccccc3C(=O)c3cc(Br)ccc32)c2ccc(Br)cc21 (stereo not drawn) [CSC19] | – | – | – | – | --- (no such effect) | --- (no such effect) | --- (no such effect) | --- (no such effect) |
| c1ccc2c(c1)C(=Nc1ccc(N=C3c4ccccc4-c4ccccc43)cc1)c1ccccc1-2 [CSC2, N1,N4-di(9H-fluoren-9-ylidene)-1,4-benzenediamine] | – | – | – | – | --- (no such effect) | --- (no such effect) | inhibition (significant inhibitory effects (>25% loss of activity)) | --- (no such effect) |
| c1ccc(CN2COc3c(ccc4c5c(ccc34)CN(Cc3ccccc3)CO5)C2)cc1 [CSC18] | – | – | – | – | --- (no such effect) | --- (no such effect) | --- (no such effect) | --- (no such effect) |
| O=C1c2ccccc2C(=O)N1c1ccc(Cc2ccc(N3C(=O)c4ccccc4C3=O)cc2)cc1 [CSC20, 2-(4-(4-(1,3-dioxo-1,3-dihydro-2H-isoindol-2-yl)benzyl)phenyl)-1H-isoindole-1,3(2H)-dione] | – | – | – | – | --- (no such effect) | --- (no such effect) | --- (no such effect) | --- (no such effect) |
| Cc1ccc(C(=N)c2ccccc2Cc2cccc3ccccc23)c2ccccc12 [CSC24, (4-methyl-1-naphthyl)(2-(1-naphthylmethyl)phenyl)methanimine] | – | – | – | – | --- (no such effect) | --- (no such effect) | inhibition (significant inhibitory effects (>25% loss of activity)) | --- (no such effect) |
| O=C1OC2(c3ccc(O)cc3Oc3cc(O)ccc32)c2c1c(-c1ccccc1)c(-c1ccccc1)c(-c1ccccc1)c2-c1ccccc1 [CSC28] | – | – | – | – | --- (no such effect) | --- (no such effect) | inhibition (significant inhibitory effects (>25% loss of activity)) | activation |
| Cc1nc2ccccc2nc1-c1ccc(/N=[N+](\[O-])c2ccc(-c3nc4ccccc4nc3C)cc2)cc1 [CSC15, 2-(4-(1-hydroxy-2-(4-(3-methyl-2-quinoxalinyl)phenyl)-1^5-diazenyl)phenyl)-3-methylquinoxaline] | – | – | – | – | --- (no such effect) | --- (no such effect) | --- (no such effect) | --- (no such effect) |
| O=C1C2C3c4ccccc4C(C2C(=O)N1c1ccc(OCc2ccccc2)cc1)[n+]1ccccc13 (stereo not drawn) [CSC34] | – | – | – | – | --- (no such effect) | --- (no such effect) | inhibition (significant inhibitory effects (>25% loss of activity)) | activation |
| O=C1c2ccccc2C(=O)c2c(NC(=O)c3ccc4c5c(ncnc35)-c3ccccc3C4=O)cccc21 [CSC36, N-(9,10-dioxo-9,10-dihydro-1-anthracenyl)-7-oxo-7H-benzo[e]perimidine-4-carboxamide, (Pigment Yellow 108)] | – | – | – | – | --- (no such effect) | --- (no such effect) | --- (no such effect) | --- (no such effect) |
| O=C1C2C(c3ccccc3)NC(c3ccccc3)C1C(c1ccccc1)NC2c1ccccc1 (stereo not drawn) [CSC29, 2,4,6,8-tetraphenyl-3,7-diazabicyclo[3.3.1]nonan-9-one] | – | – | – | – | --- (no such effect) | --- (no such effect) | --- (no such effect) | --- (no such effect) |
| O=S(=O)(c1ccc2ccccc2c1)N1CCN(S(=O)(=O)c2ccc3ccccc3c2)CC1 [CSC12, 1,4-bis(2-naphthylsulfonyl)piperazine] | – | – | – | – | --- (no such effect) | --- (no such effect) | --- (no such effect) | --- (no such effect) |
